Assay results taken from ChEMBL document CHEMBL3885881, “DrugMatrix”.

Species: Rattus norvegicus
Experiment: DrugMatrix - Regimen: Daily Repeat
Format: toxicity, organism-based, Sprague-Dawley
Design: regimen Daily Repeat, gender Male, age 6-8 weeks
Details: in vivo, ip, 1 mg/kg, route intraperitoneal, dose level High, vehicle 100 % SALINE; for ABSOLUTE BASOPHIL / ABSOLUTE EOSINOPHIL / ABSOLUTE LYMPHOCYTE / ABSOLUTE MONOCYTE / ABSOLUTE SEGMENTED NEUTROPHIL / BASOPHIL / EOSINOPHIL / ERYTHROCYTE COUNT / HEMATOCRIT / HEMOGLOBIN / LEUKOCYTE COUNT / LYMPHOCYTE / MEAN CORPUSCULAR HEMOGLOBIN / MEAN CORPUSCULAR HEMOGLOBIN CONCENTRATION / MEAN CORPUSCULAR VOLUME / MONOCYTE / NEUTROPHIL / NUCLEATED RED BLOOD CELLS / PLATELET COUNT: tissue Blood; for ALANINE AMINOTRANSFERASE / ALKALINE PHOSPHATASE / ASPARTATE AMINOTRANSFERASE / BLOOD UREA NITROGEN / CARBON DIOXIDE / CHLORIDE / CHOLESTEROL / CREATININE / GLUCOSE / LACTATE DEHYDROGENASE / LIPASE / PHOSPHORUS / POTASSIUM / SODIUM / TOTAL BILIRUBIN / TOTAL PROTEIN / URIC ACID: tissue Plasma

CC[C@H]1CN2CCc3cc(OC)c(OC)cc3[C@@H]2C[C@@H]1C[C@H]1NCCc2cc(OC)c(OC)cc21 [EMETINE]
ABSOLUTE BASOPHIL (72 h, time 3 day): 0 CELLS/uL | ABSOLUTE EOSINOPHIL (72 h, time 3 day): 235.33 CELLS/uL | ABSOLUTE LYMPHOCYTE (72 h, time 3 day): 9173.33 CELLS/uL | ABSOLUTE MONOCYTE (72 h, time 3 day): 141.33 CELLS/uL | ABSOLUTE SEGMENTED NEUTROPHIL (72 h, time 3 day): 916.67 CELLS/uL | BASOPHIL (72 h, time 3 day): 0% | EOSINOPHIL (72 h, time 3 day): 2.33% | ERYTHROCYTE COUNT (72 h, time 3 day): 6.53 x10E6/uL | HEMATOCRIT (72 h, time 3 day): 38.67% | HEMOGLOBIN (72 h, time 3 day): 13.97 G/DL | LEUKOCYTE COUNT (72 h, time 3 day): 10.47 x10E3/uL | LYMPHOCYTE (72 h, time 3 day): 88% | MEAN CORPUSCULAR HEMOGLOBIN (72 h, time 3 day): 21.37 pg | MEAN CORPUSCULAR HEMOGLOBIN CONCENTRATION (72 h, time 3 day): 36.1 G/DL | MEAN CORPUSCULAR VOLUME (72 h, time 3 day): 59.2 fL | MONOCYTE (72 h, time 3 day): 1.33% | NEUTROPHIL (72 h, time 3 day): 8.33% | NUCLEATED RED BLOOD CELLS (72 h, time 3 day): 0 /100WBC | PLATELET COUNT (72 h, time 3 day): 1026.33 x10E3/uL | ALANINE AMINOTRANSFERASE (72 h, time 3 day): 66.33 u/L | ALKALINE PHOSPHATASE (72 h, time 3 day): 365 u/L | ASPARTATE AMINOTRANSFERASE (72 h, time 3 day): 82.33 u/L | BLOOD UREA NITROGEN (72 h, time 3 day): 17.67 mg/dL | CARBON DIOXIDE (72 h, time 3 day): 34.67 mmol/L | CHLORIDE (72 h, time 3 day): 100.33 MEQ/L | CHOLESTEROL (72 h, time 3 day): 63 mg/dL | CREATININE (72 h, time 3 day): 0.22 mg/dL | GLUCOSE (72 h, time 3 day): 180.33 mg/dL | LACTATE DEHYDROGENASE (72 h, time 3 day): 120.33 u/L | LIPASE (72 h, time 3 day): 9 u/L | PHOSPHORUS (72 h, time 3 day): 11.83 mg/dL | POTASSIUM (72 h, time 3 day): 6.48 MEQ/L | SODIUM (72 h, time 3 day): 146.33 MEQ/L | TOTAL BILIRUBIN (72 h, time 3 day): 0.2 mg/dL | TOTAL PROTEIN (72 h, time 3 day): 6.27 G/DL | URIC ACID (72 h, time 3 day): 1.73 mg/dL | ABSOLUTE BASOPHIL (120 h, time 5 day): 0 CELLS/uL | ABSOLUTE EOSINOPHIL (120 h, time 5 day): 107.33 CELLS/uL | ABSOLUTE LYMPHOCYTE (120 h, time 5 day): 9674.67 CELLS/uL | ABSOLUTE MONOCYTE (120 h, time 5 day): 240.33 CELLS/uL | ABSOLUTE SEGMENTED NEUTROPHIL (120 h, time 5 day): 1811 CELLS/uL | BASOPHIL (120 h, time 5 day): 0% | EOSINOPHIL (120 h, time 5 day): 1% | ERYTHROCYTE COUNT (120 h, time 5 day): 6.23 x10E6/uL | HEMATOCRIT (120 h, time 5 day): 37.3% | HEMOGLOBIN (120 h, time 5 day): 13.67 G/DL | LEUKOCYTE COUNT (120 h, time 5 day): 11.83 x10E3/uL | LYMPHOCYTE (120 h, time 5 day): 82.67% | MEAN CORPUSCULAR HEMOGLOBIN (120 h, time 5 day): 21.93 pg | MEAN CORPUSCULAR HEMOGLOBIN CONCENTRATION (120 h, time 5 day): 36.67 G/DL | MEAN CORPUSCULAR VOLUME (120 h, time 5 day): 59.8 fL | MONOCYTE (120 h, time 5 day): 2% | NEUTROPHIL (120 h, time 5 day): 14.33% | NUCLEATED RED BLOOD CELLS (120 h, time 5 day): 0 /100WBC | PLATELET COUNT (120 h, time 5 day): 1167.33 x10E3/uL | ALANINE AMINOTRANSFERASE (120 h, time 5 day): 57 u/L | ALKALINE PHOSPHATASE (120 h, time 5 day): 325 u/L | ASPARTATE AMINOTRANSFERASE (120 h, time 5 day): 102.33 u/L | BLOOD UREA NITROGEN (120 h, time 5 day): 16.67 mg/dL | CARBON DIOXIDE (120 h, time 5 day): 28.67 mmol/L | CHLORIDE (120 h, time 5 day): 100.67 MEQ/L | CHOLESTEROL (120 h, time 5 day): 52.67 mg/dL | CREATININE (120 h, time 5 day): 0.23 mg/dL | GLUCOSE (120 h, time 5 day): 272.67 mg/dL | LACTATE DEHYDROGENASE (120 h, time 5 day): 312 u/L | LIPASE (120 h, time 5 day): 8.67 u/L | PHOSPHORUS (120 h, time 5 day): 14.97 mg/dL | POTASSIUM (120 h, time 5 day): 5.87 MEQ/L | SODIUM (120 h, time 5 day): 146.87 MEQ/L | TOTAL BILIRUBIN (120 h, time 5 day): 0.1 mg/dL | TOTAL PROTEIN (120 h, time 5 day): 5.9 G/DL | URIC ACID (120 h, time 5 day): 2.8 mg/dL | ABSOLUTE BASOPHIL ([…], time 14 day): 0 CELLS/uL | ABSOLUTE EOSINOPHIL ([…], time 14 day): 124.6 CELLS/uL | ABSOLUTE LYMPHOCYTE ([…], time 14 day): 16602.4 CELLS/uL | ABSOLUTE MONOCYTE ([…], time 14 day): 725.4 CELLS/uL | ABSOLUTE SEGMENTED NEUTROPHIL ([…], time 14 day): 1987.6 CELLS/uL | BASOPHIL ([…], time 14 day): 0% | EOSINOPHIL ([…], time 14 day): 0.6% | ERYTHROCYTE COUNT ([…], time 14 day): 6.66 x10E6/uL | HEMATOCRIT ([…], time 14 day): 38.76% | HEMOGLOBIN ([…], time 14 day): 14.18 G/DL | LEUKOCYTE COUNT ([…], time 14 day): 19.44 x10E3/uL | LYMPHOCYTE ([…], time 14 day): 85.6% | MEAN CORPUSCULAR HEMOGLOBIN ([…], time 14 day): 21.32 pg | MEAN CORPUSCULAR HEMOGLOBIN CONCENTRATION ([…], time 14 day): 36.58 G/DL | MEAN CORPUSCULAR VOLUME ([…], time 14 day): 58.24 fL | MONOCYTE ([…], time 14 day): 3.6% | NEUTROPHIL ([…], time 14 day): 10.2% | NUCLEATED RED BLOOD CELLS ([…], time 14 day): 0 /100WBC | PLATELET COUNT ([…], time 14 day): 1306.2 x10E3/uL | ALANINE AMINOTRANSFERASE ([…], time 14 day): 45.2 u/L | ALKALINE PHOSPHATASE ([…], time 14 day): 253.2 u/L | ASPARTATE AMINOTRANSFERASE ([…], time 14 day): 99 u/L | BLOOD UREA NITROGEN ([…], time 14 day): 13.6 mg/dL | CARBON DIOXIDE ([…], time 14 day): 31.8 mmol/L | CHLORIDE ([…], time 14 day): 101 MEQ/L | CHOLESTEROL ([…], time 14 day): 62.2 mg/dL | CREATININE ([…], time 14 day): 0.14 mg/dL | GLUCOSE ([…], time 14 day): 143.2 mg/dL | LACTATE DEHYDROGENASE ([…], time 14 day): 172.6 u/L | LIPASE ([…], time 14 day): 8.8 u/L | PHOSPHORUS ([…], time 14 day): 11.54 mg/dL | POTASSIUM ([…], time 14 day): 6.76 MEQ/L | SODIUM ([…], time 14 day): 145.5 MEQ/L | TOTAL BILIRUBIN ([…], time 14 day): 0.2 mg/dL | TOTAL PROTEIN ([…], time 14 day): 5.82 G/DL | URIC ACID ([…], time 14 day): 1.66 mg/dL
